Results as given in patent US20190275040A1, “COMPOUNDS AND METHODS FOR TREATING OR PREVENTING ALZHEIMER'S DISEASE” (YALE UNIVERSITY, priority 2016, published 2019).

Assays:
[1] = test system: Aβo-induced suppression of LTP in hippocampal slices; assay: Hippocampal CA3-CA1 LTP in acute brain slices with or without Aβo; assay type: cell-based, mouse; details: WT slices
Procedure: FIG. 3A depicts WT slices that were treated with either vehicle or Aβo 30 min prior to theta burst stimulation (TBS). The slope of the field excitatory postsynaptic potential (fEPSP) is plotted as a function of time. Data are graphed as mean±SEM (n=6-12). Inset, representative traces immediately before TBS and 60 min post-TBS (red) are superimposed. FIG. 3B depicts WT and Pyk2−/− brain slices in the absence of Aβo, plotted as in FIG. 3A. FIG. 3C depicts average fEPSPs at 50-60 min post-TBS plotted for the indicated conditions as mean±SEM (n=3-20). Where indicated, 500 nM PF719 kinase inhibitor was pre-incubated with WT slices for 60 min prior to addition of Aβo or vehicle for 30 min, and then TBS. One-way ANOVA, **, p<0.01.
The role of Pyk2 in Aβo-induced disruption of synaptic plasticity using hippocampal CA3 to CA1 LTP has also been evaluated, comparing WT and Pyk2−/− slices. […]
400-μm coronal slices were prepared as described elsewhere herein and submerged in a recording chamber (BSC-PC, Warner Instruments) containing aCSF with 2.4 mM CaCl2 that was continuously oxygenated (95% O2, 5% CO2). […] Extracellular field excitatory post-synaptic potentials (fEPSPs) were recorded using a glass microelectrode (2-6 MS2) (4878, World Precision Instruments) filled with aCSF, and placed in the Stratum radiatum of CA1 neurons. […]

FAK = FAK (Homo sapiens, UniProt Q05397); assay: FAK Ki and selectivity versus Pyk2; assay type: biochemical
Sequence of FAK (Q05397 whole entry, species assumed): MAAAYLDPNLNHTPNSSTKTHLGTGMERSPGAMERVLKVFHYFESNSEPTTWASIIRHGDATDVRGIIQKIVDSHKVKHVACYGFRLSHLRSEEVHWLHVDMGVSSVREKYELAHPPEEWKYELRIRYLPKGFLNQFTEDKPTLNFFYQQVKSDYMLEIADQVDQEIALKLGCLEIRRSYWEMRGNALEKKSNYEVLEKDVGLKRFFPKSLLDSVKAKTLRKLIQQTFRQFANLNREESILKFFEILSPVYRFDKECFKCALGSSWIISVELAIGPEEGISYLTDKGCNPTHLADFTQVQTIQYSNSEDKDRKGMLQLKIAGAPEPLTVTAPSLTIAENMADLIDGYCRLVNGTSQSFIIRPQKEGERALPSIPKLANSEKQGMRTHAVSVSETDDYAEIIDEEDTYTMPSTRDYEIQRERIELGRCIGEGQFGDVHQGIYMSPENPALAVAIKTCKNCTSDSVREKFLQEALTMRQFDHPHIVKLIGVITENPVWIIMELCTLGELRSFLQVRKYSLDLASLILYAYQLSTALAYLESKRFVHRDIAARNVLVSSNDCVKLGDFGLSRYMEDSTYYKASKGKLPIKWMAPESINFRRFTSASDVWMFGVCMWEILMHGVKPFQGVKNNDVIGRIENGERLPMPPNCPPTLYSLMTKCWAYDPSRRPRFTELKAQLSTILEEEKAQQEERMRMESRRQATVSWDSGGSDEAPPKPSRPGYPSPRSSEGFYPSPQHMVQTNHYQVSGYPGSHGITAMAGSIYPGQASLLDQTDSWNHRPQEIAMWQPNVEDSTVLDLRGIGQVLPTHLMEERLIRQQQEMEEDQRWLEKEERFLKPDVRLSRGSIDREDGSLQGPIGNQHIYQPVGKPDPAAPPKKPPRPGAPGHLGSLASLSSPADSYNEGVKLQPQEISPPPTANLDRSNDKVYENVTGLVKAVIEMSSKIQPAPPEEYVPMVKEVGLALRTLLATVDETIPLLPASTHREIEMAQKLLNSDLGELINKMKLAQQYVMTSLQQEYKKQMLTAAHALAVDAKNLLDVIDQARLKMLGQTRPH

[2] = test system: primary hippocampal neurons; assay: Dendritic spine motility in primary hippocampal neurons; assay type: cell-based, mouse; details: Aβo 24 hours; PF-719 1 μM, Y27632 10 μM
Text: FIG. 11A: Representative images of dendritic spine motility by standard deviation projection of time-lapse image. […] The standard deviation value for each pixel is shown by thermal color scale. […] FIG. 11B: Quantification of spine motility, expressed as % of changed area of spines with subtraction of changed area of dendritic shaft as background (changed area=(ΔAspine/Aspine×100)−(ΔAshaft/Ashaft×100)). […] Data are graphed as mean±SEM (n=7-8 coverslips from 3 different cultures). **p<0.01, ***p<0.001 by ANOVA, Tukey's multiple comparisons test.
FIG. 18A: Representative images of dendritic spine motility by standard deviation projection of time stacks. […] To display the spine motility in time-lapse images, the time stack images over 5 min of each conditions were projected to standard deviation using Image J and color coated with thermal color scale. […] FIG. 18B: Quantification of spine motility, expressed as % of changed area of spines with subtraction of dendritic shaft area change (changed area=(ΔAspine/Aspine×100)−(ΔAshaft/Ashaft×100)). Mean±SEM (n=5 coverslips).
Time-lapse images were acquired for 5 minutes with 10 second intervals in Tyrode's solution using 60× objective lens driven Volocity software. Time-lapse images (31 time frames over 5 min) were subjected to standard deviation (STD) projection to visualize spine motility in single image and colorized with thermal scale using ImageJ software (NIH). Quantitative measurements of spine motility by calculating the changed area at individual dendritic spines were conducted by using ImageJ software by an observer unaware of treatment group.

Compound: CCOc1ccc2nc(SCc3nc(N)nc(N4CCOCC4)n3)sc2c1 [PF-719, 4-(((6-ethoxybenzo[d]thiazol-2-yl)thio)methyl)-6-morpholino-1,3,5-triazin-2-amine]
- Aβo-induced suppression of LTP ([1]; 500 nM, Aβo 30 min before TBS): protects these slices from Aβo-induced suppression
- LTP without Aβo ([1]; nM concentrations (500 nM, 60 min pre-incubation)): does not block LTP
- selectivity Pyk2 versus FAK (FAK): 30 ×
- Aβo-induced decrease in spine motility [2]: rescue fully the Aβo-induced decrease in spine motility
